# Laboratory results taken from ChEMBL document CHEMBL4359837, “Discovery of 2-(4-Chloro-3-(trifluoromethyl)phenyl)-N-(4-((6,7-dimethoxyquinolin-4-yl)oxy)phenyl)acetamide (CHMFL-KIT-64) as a Novel Orally Available Potent Inhibitor against Broad-Spectrum Mutants of c-KIT Kinase for Gastrointestinal Stromal Tumors” (J Med Chem, 2019).
# Calls of active or inactive are those of the source. The rule behind the calls is not given here.
# Key:
# [1] = organism: Homo sapiens; assay type: functional, cell-based
# [2] = target: T1, Mast/stem cell growth factor receptor Kit (Homo sapiens, UniProt P10721, 560-578DEL/T670I)
# T1 sequence (P10721 whole entry, looked up, stated change not applied): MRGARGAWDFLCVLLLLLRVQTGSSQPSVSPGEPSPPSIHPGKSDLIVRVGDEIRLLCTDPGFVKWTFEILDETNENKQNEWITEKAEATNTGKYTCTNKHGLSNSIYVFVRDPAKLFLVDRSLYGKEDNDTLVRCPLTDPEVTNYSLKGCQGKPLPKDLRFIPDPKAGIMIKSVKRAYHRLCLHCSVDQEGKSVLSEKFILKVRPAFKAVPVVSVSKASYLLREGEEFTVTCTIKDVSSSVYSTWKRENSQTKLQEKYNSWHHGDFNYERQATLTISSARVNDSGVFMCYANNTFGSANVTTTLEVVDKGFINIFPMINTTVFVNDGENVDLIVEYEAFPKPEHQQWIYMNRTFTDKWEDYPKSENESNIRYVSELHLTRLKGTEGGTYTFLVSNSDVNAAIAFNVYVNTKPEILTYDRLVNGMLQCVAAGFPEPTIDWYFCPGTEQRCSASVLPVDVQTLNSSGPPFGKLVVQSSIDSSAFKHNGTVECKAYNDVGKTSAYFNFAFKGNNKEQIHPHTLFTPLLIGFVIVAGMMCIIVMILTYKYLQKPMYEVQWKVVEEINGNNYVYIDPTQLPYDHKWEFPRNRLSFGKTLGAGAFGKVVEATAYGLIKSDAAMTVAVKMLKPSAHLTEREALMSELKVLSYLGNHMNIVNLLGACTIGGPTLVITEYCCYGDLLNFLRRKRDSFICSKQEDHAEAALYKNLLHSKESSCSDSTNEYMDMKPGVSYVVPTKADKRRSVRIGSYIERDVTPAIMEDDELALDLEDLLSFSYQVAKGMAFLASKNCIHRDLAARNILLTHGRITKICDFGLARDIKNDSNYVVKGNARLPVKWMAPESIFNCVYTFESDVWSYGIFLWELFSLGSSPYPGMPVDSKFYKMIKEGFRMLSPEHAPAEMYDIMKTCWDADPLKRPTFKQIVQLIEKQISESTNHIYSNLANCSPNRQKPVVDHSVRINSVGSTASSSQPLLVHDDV
# [3] = target: T1, Mast/stem cell growth factor receptor Kit; remark: listed apart in the source
# [4] = Toxicity in BALB/c nu mouse implanted with mouse BAF3(transformed) cells harboring c-KIT D820G mutant assessed as change in body weight at 40 to 80 mg/kg/day, po administered via gavage for 9 days measured daily during compound dosing; assay type: organism-based; conditions: in vivo, 216 h
# [5] = Oral bioavailability in Sprague-Dawley rat at 10 mg/kg by LC-MS/MS analysis; assay type: ADME, organism-based; conditions: in vivo
# [6] = Antitumor activity against mouse BAF3(transformed) cells harboring c-KIT T670I mutant implanted in BALB/c nu mouse assessed as tumor growth inhibition at 40 mg/kg/day, po administered via gavage for 11 days relative to control; assay type: functional; conditions: 264 h, read-out: TGI
# [7] = system: GISTT1; assay type: functional, Homo sapiens
# [8] = system: Mast/stem cell growth factor receptor Kit (Homo sapiens), P10721 [L576P]; conditions: Mus musculus
# [9] = Antitumor activity against mouse BAF3(transformed) cells harboring c-KIT Y823D mutant implanted in BALB/c nu mouse assessed as tumor growth inhibition at 40 mg/kg/day, po administered via gavage for 9 days relative to control; assay type: functional; conditions: 216 h, read-out: TGI
# [10] = organism: Mus musculus; experiment: Inhibition of c-KIT D820G mutant in mouse BAF3(transformed) cells assessed as growth inhibition after 72 hrs by CCK8 assay
# [11] = organism: Mus musculus; experiment: Inhibition of c-KIT T670E mutant in mouse BAF3(transformed) cells assessed as growth inhibition after 72 hrs by CCK8 assay
# [12] = system: Mast/stem cell growth factor receptor Kit (Homo sapiens), P10721 [V559D]; conditions: Mus musculus
# Description: Inhibition of c-KIT V559D mutant in mouse BAF3(transformed) cells assessed as growth inhibition after 72 hrs by CCK8 assay
# [13] = target: Mast/stem cell growth factor receptor Kit (Homo sapiens, UniProt P10721, 560-578DEL); assay type: cell-based, GISTT1
# [14] = target: Serine/threonine-protein kinase 10 (Homo sapiens) (UniProt O94804); experiment: Binding affinity to wild-type human partial length LOK (E16 to V314 residues) expressed in bacterial expression system assessed as residual binding level at 1 uM by Kinomescan method relative to control
# [15] = target: T2, Platelet-derived growth factor receptor beta (Homo sapiens, UniProt P09619); experiment: Binding affinity to wild-type human partial length PDGFRB (V582 to Y1009 residues) expressed in bacterial expression system assessed as residual binding level at 1 uM by Kinomescan method relative to control
# [16] = AUC (0 to t) in mouse at 1 mg/kg, iv by LC-MS/MS analysis; assay type: ADME, organism-based; conditions: in vivo
# [17] = system: Mus musculus; assay type: functional, organism-based; conditions: BALB/c, 80 mg/kg, TDE = time-dependent effect
# [18] = system: Mast/stem cell growth factor receptor Kit (Homo sapiens), P10721 [D816H]; conditions: Mus musculus
# Mast/stem cell growth factor receptor Kit (Homo sapiens), P10721 [D816H], sequence (P10721 whole entry D816H): as the sequence (P10721 whole entry, looked up, stated change not applied) above, with D816H counted along it
# Description: Inhibition of c-KIT D816H mutant in mouse BAF3(transformed) cells assessed as growth inhibition after 72 hrs by CCK8 assay
# [19] = organism: Mus musculus; experiment: Inhibition of c-KIT V654A/V559D double mutant in mouse BAF3(transformed) cells assessed as growth inhibition after 72 hrs by CCK8 assay
# [20] = organism: Mus musculus; experiment: Inhibition of c-KIT T670I/V559D double mutant in mouse BAF3(transformed) cells assessed as growth inhibition after 72 hrs by CCK8 assay
# [21] = system: GISTT1; assay type: functional; conditions: for inhibition in vivo at 20 mg/kg/day: Mus musculus, GISTT1, po, 672 h, read-out: TGI
# [22] = target: Epithelial discoidin domain-containing receptor 1 (Mus musculus) (UniProt Q03146); experiment: Inhibition of DDR1 in mouse BAF3(transformed) cells assessed as growth inhibition after 72 hrs by CCK8 assay
# [23] = organism: Mus musculus; experiment: Inhibition of c-KIT D816E mutant in mouse BAF3(transformed) cells assessed as growth inhibition after 72 hrs by CCK8 assay
# [24] = system: GISTT1; assay type: functional, cell-based; conditions: Homo sapiens
# [25] = organism: Mus musculus; experiment: Inhibition of c-KIT S709F mutant in mouse BAF3(transformed) cells assessed as growth inhibition after 72 hrs by CCK8 assay
# [26] = system: Mast/stem cell growth factor receptor Kit (Homo sapiens), P10721 [D820E]; conditions: Mus musculus
# Mast/stem cell growth factor receptor Kit (Homo sapiens), P10721 [D820E], sequence (P10721 whole entry D820E): as the sequence (P10721 whole entry, looked up, stated change not applied) above, with D820E counted along it
# Description: Inhibition of c-KIT D820E mutant in mouse BAF3(transformed) cells assessed as growth inhibition after 72 hrs by CCK8 assay
# [27] = system: Mus musculus; assay type: functional, organism-based; conditions: BALB/c, 80 mg/kg, TDE = time-dependent effect; remark: listed apart in the source
# [28] = target: T2, Platelet-derived growth factor receptor beta; experiment: Inhibition of recombinant human His-tagged PDGFRB cytoplasmic domain (558 to 1106 residues) expressed in baculovirus expression system by Z-lyte assay
# [29] = Tmax in Beagle dog at 5 mg/kg, po by LC-MS/MS analysis; assay type: ADME, organism-based, Canis lupus familiaris; conditions: in vivo
# [30] = system: Mast/stem cell growth factor receptor Kit (Homo sapiens), P10721 [A829P]; conditions: Mus musculus
# Description: Inhibition of c-KIT A829P mutant in mouse BAF3(transformed) cells assessed as growth inhibition after 72 hrs by CCK8 assay
# [31] = Half life in mouse at 1 mg/kg, iv by LC-MS/MS analysis; assay type: ADME, organism-based; conditions: in vivo
# [32] = Growth inhibition of human GIST48B cells after 72 hrs by CCK8 assay; assay type: functional
# [33] = system: Mast/stem cell growth factor receptor Kit (Homo sapiens), P10721 [D820Y]; conditions: Mus musculus
# Description: Inhibition of c-KIT D820Y mutant in mouse BAF3(transformed) cells assessed as growth inhibition after 72 hrs by CCK8 assay
# [34] = system: Mast/stem cell growth factor receptor Kit (Homo sapiens), P10721 [D816V]; conditions: Mus musculus
# Description: Inhibition of c-KIT D816V mutant in mouse BAF3(transformed) cells assessed as growth inhibition after 72 hrs by CCK8 assay
# [35] = Growth inhibition of mouse BAF3 cells measured after 72 hrs by CCK8 assay; assay type: cell-based
# [36] = system: GISTT1; assay type: functional
# [37] = target: T1, Mast/stem cell growth factor receptor Kit; assay type: cell-based
# [38] = target: RAC-alpha serine/threonine-protein kinase (Homo sapiens) (UniProt P31749); assay type: cell-based; conditions: GISTT1
# RAC-alpha serine/threonine-protein kinase (Homo sapiens), sequence (P31749 whole entry): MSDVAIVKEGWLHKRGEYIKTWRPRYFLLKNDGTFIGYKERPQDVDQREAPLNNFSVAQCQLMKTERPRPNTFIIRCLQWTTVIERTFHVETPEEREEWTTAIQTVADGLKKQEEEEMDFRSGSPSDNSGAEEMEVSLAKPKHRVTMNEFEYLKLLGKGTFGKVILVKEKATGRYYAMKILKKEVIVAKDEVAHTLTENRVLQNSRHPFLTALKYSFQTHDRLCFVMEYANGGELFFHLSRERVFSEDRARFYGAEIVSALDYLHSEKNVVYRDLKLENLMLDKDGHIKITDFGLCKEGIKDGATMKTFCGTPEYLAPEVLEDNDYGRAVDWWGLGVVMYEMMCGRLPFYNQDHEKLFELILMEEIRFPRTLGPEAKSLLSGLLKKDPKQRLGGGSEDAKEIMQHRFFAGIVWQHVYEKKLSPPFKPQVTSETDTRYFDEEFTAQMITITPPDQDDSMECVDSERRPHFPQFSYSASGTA
# [39] = target: Mast/stem cell growth factor receptor Kit (Mus musculus) (UniProt P05532); experiment: Inhibition of c-KIT in mouse BAF3(transformed) cells assessed as growth inhibition after 72 hrs by CCK8 assay
# [40] = system: Mus musculus; assay type: functional, organism-based; conditions: BALB/c, 80 mg/kg, TDE = time-dependent effect; remark: listed apart in the source
# [41] = system: Mast/stem cell growth factor receptor Kit (Homo sapiens), P10721 [UNDEFINED MUTATION]; conditions: GISTT1, 0.1 uM
# Mast/stem cell growth factor receptor Kit (Homo sapiens), P10721 [UNDEFINED MUTATION], sequence (P10721 whole entry, looked up, change not shown): as the sequence (P10721 whole entry, looked up, stated change not applied) above
# Description: Inhibition of c-KIT 560 to 578 deletion mutant in human GISTT1 cells assessed as reduction in STAT3 phosphorylation at Y705 residue at 0.1 uM measured after 2 hrs by Western blot analysis
# [42] = target: RAC-alpha serine/threonine-protein kinase (Homo sapiens) (UniProt P31749); conditions: GISTT1, 0.1 uM
# Description: Inhibition of AKT autophosphorylation at T308 residue in human GISTT1 cells harboring c-KIT 560 to 578 deletion/T670I mutant at 0.1 uM measured after 2 hrs by Western blot analysis
# [43] = system: Mast/stem cell growth factor receptor Kit (Homo sapiens), P10721 [UNDEFINED MUTATION]; conditions: GISTT1, 0.1 uM; remark: listed apart in the source
# Description: Inhibition of c-KIT 560 to 578 deletion/T670I mutant in human GISTT1 cells assessed as reduction in c-KIT autophosphorylation at Y719 residue at 0.1 uM measured after 2 hrs by Western blot analysis
# [44] = system: Mast/stem cell growth factor receptor Kit (Homo sapiens), P10721 [UNDEFINED MUTATION]; conditions: GISTT1, 0.1 uM; remark: listed apart in the source
# Description: Inhibition of c-KIT 560 to 578 deletion mutant in human GISTT1 cells assessed as reduction in c-KIT autophosphorylation at Y823 residue at 0.1 uM measured after 2 hrs by Western blot analysis
# [45] = system: Mast/stem cell growth factor receptor Kit (Homo sapiens), P10721 [UNDEFINED MUTATION]; conditions: 0.1 uM
# Description: Inhibition of c-KIT 560 to 578 deletion/T670I mutant in human GIST5R cells assessed as reduction in c-KIT autophosphorylation at Y823 residue at 0.1 uM measured after 2 hrs by Western blot analysis
# [46] = target: RAC-alpha serine/threonine-protein kinase (Homo sapiens) (UniProt P31749); conditions: GISTT1, 0.1 uM; remark: listed apart in the source
# Description: Inhibition of AKT autophosphorylation at T308 residue in human GISTT1 cells harboring c-KIT 560 to 578 deletion mutant at 0.1 uM measured after 2 hrs by Western blot analysis
# [47] = system: Mast/stem cell growth factor receptor Kit (Homo sapiens), P10721 [UNDEFINED MUTATION]; conditions: GISTT1, 0.1 uM; remark: listed apart in the source
# Description: Inhibition of c-KIT 560 to 578 deletion/T670I mutant in human GISTT1 cells assessed as reduction in STAT3 phosphorylation at Y705 residue at 0.1 uM measured after 2 hrs by Western blot analysis
compound,measurement,setting,value
COc1cc2nccc(Oc3ccc(NC(=O)Cc4ccc(Cl)c(C(F)(F)F)c4)cc3)c2cc1OC,Activity,[1],Dose-dependent effect
same,EC50,[2],< 0.1 µM
same,EC50,[3],< 0.1 µM
same,Activity,[4],Non-Toxic
same,bioavailability,[5],50%
same,inhibition in vivo at 40 mg/kg/day,[6],90.2%
same,Activity,[7],0.2 g
same,GI50,[8],0.001 µM
same,inhibition in vivo at 40 mg/kg/day,[9],81.8%
same,GI50,[10],0.009 µM
same,GI50,[11],0.071 µM
same,GI50,[12],0.006 µM
same,EC50,[13],< 0.1 µM
same,Activity,[14],< 1%
same,Activity,[15],< 1%
same,AUC(0-t),[16],2990 ng·h/mL
same,inhibition,[17],Tde
same,GI50,[18],0.097 µM
same,GI50,[19],0.042 µM
same,GI50,[20],0.045 µM
same,TGI,"[21]; Homo sapiens, 20 mg/kg",Dose-dependent effect
same,inhibition in vivo at 20 mg/kg/day,[21],59.4%
same,GI50,[22],> 1 µM
same,GI50,[23],0.016 µM
same,Activity,[24],Dose-dependent effect
same,GI50,[25],0.017 µM
same,GI50,[26],0.001 µM
same,inhibition,[27],Tde
same,IC50,[28],0.097 µM
same,Tmax,[29],5.33 h
same,GI50,[30],0.022 µM
same,half-life,[31],5.4 h
same,GI50,[32],1.37 µM
same,GI50,[33],0.003 µM
same,GI50,[34],1.73 µM
same,GI50 at 72 h,[35],5.97 µM
same,TGI,"[36]; Homo sapiens, 40 mg/kg",Dose-dependent effect
same,inhibition in vivo at 40 mg/kg/day,"[36]; Mus musculus, GISTT1, po, 672 h, read-out: TGI",76.4%
same,EC50,[37],< 0.1 µM
same,inhibition,[38],inactive
same,GI50,[39],0.001 µM
same,inhibition,[40],Tde
CCN(CC)CCNC(=O)c1c(C)[nH]c(/C=C2\C(=O)Nc3ccc(F)cc32)c1C [SUNITINIB],inhibition,[41],Active
same,inhibition,[42],inactive
same,inhibition in vivo at 40 mg/kg/day,[6],96.7%
same,GI50,[10],0.389 µM
same,inhibition,[43],Active
same,GI50,[11],0.089 µM
same,GI50,[12],0.001 µM
same,inhibition,[44],Active
same,inhibition,[45],Active
same,GI50,[18],0.315 µM
same,GI50,[19],0.019 µM
same,GI50,[20],0.012 µM
same,inhibition in vivo at 20 mg/kg/day,[21],93.6%
same,GI50,[23],0.059 µM
same,GI50,[25],0.028 µM
same,GI50,[26],0.093 µM
same,inhibition,[46],Active
same,GI50,[30],0.018 µM
same,GI50,[32],0.74 µM
same,GI50,[33],0.172 µM
same,GI50,[34],1.72 µM
same,GI50 at 72 h,[35],1.01 µM
same,inhibition,[47],Active
same,GI50,[39],0.003 µM
